Data on one compound can be found in article PMC10970734, “Identification of an Intravenous Injectable NK1 Receptor Antagonist for Use in Traumatic Brain Injury” (International Journal of Molecular Sciences, 2024).

Experiment [1] has as its target T1, recombinant human NK3 receptor (Homo sapiens, UniProt P29371).
T1 sequence (P29371 1-465): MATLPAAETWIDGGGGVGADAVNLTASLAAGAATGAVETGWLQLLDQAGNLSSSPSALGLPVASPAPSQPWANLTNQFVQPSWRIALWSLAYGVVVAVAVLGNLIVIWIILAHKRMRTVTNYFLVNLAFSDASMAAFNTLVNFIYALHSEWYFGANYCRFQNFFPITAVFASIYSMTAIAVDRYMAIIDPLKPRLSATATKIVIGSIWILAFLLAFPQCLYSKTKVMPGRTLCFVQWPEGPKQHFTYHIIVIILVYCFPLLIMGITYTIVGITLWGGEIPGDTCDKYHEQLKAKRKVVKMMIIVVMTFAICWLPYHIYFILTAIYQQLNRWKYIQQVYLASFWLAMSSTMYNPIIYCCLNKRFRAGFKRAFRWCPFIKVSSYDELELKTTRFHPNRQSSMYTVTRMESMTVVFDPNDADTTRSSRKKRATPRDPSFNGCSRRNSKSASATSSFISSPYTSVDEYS
In words: Radioligand binding, recombinant human NK3 receptor.

The test system of experiment [2] is rodent model of TBI. In words: Cognitive function after TBI, Barnes maze. In kind it is in vivo, Sprague Dawley rats. The conditions noted are these: rat TBI, 10 mg/kg 30 min post-injury, 10 days. On the procedure: Cognitive outcome was assessed using the Barnes maze in order to reduce the potential confounding effects that may be associated with tests such as the Morris water maze. In the Barnes maze, animals were placed under a cover in the centre of an elevated 1.2 m diameter board containing 19 holes around the periphery. One hole contained the entrance to a darkened escape tunnel that was not visible from the surface, relying on the animal to use surrounding visual cues to locate the tunnel. The time, in seconds, for the animal to locate and enter the escape tunnel was recorded. Following pre-training, the effect of injury, and post-injury treatment, on the time taken for the animal to locate the tunnel was measured (Figure 7). […]
Injury was induced in halothane-anesthetized (ProVet) male Sprague Dawley rats (400 ± 20 g) using acceleration-induced impact TBI [29, 93]. […] Blood pressure was monitored, both before and after injury, using a femoral arterial line. […]
Motor and cognitive outcomes in animals (n = 6 per group) were assessed using the rotarod and Barnes maze, respectively, as described in detail elsewhere. […] The rotational speed of the device was increased from 0 to 30 r.p.m. and the duration (in seconds) when the animals either completed the task, fell from the rods, or gripped the rods and spun for two consecutive revolutions rather than walking actively was recorded as the rotarod score. […]

`Cc1ccccc1-c1cc(N2CCN(C)CC2)ncc1C(=O)N(C)Cc1cc(C(F)(F)F)cc(C(F)(F)F)c1` [EUC-001, N-(3,5-Bis-trifluoromethyl-benzyl)-N-methyl-6-(4-methyl-piperazine-1-yl)-4-o-tolyl-nicotinamide]: in experiment [1], the inhibitory constant (Ki) came to 17 µM. In addition, the “Cognitive function, Barnes maze time to locate escape tunnel” value in experiment [2] is “minimal impact on the performance time”.

Broadly, the Ki is a measure of affinity in units of concentration, obtained from inhibition or displacement.
